We go through one substance from USRE38046E1, “Enhancement of the cellular immune response” (Biomira, Inc., priority 1986, dated 2003).

One test deals with TA3Ha cells. Put plainly: Priming with antigen, challenge 2-3 days later with live TA3Ha cells, survival. The class given is in vivo, mice. An excerpt: Groups of five mice at a time were primed with specific doses of T-alpha (TF) (Ta), T-beta (Tb) (asialo-GM1 disaccharide) and Tn S-Tags. After 2-3 days, they were challenged with 3×10^3 live TA3Ha cells.
Groups of five mice were primed with specific doses of epi. After 2-3 days they were challenged with 3′10^3 live TA3Ha cells.

The next test relates to DTH effector cells. Put plainly: Local transfer of DTH: antigen-primed spleen/T cells co-injected with triggering antigen into foot pad, net DTH swelling. The class given is in vivo, mice.

As for Epiglycanin, the “In Vivo Protection: Number of animals alive at 4 weeks” value in the test with TA3Ha cells (Dose of Ag 0.1 ug) is 1/20; with TA3Ha cells (Dose of Ag 0.5 ug), 5/20; in the test with TA3Ha cells (Dose of Ag 1.0 ug) it was 8/20; with TA3Ha cells (Dose of Ag 5.0 ug) it was 8/15; in the test on TA3Ha cells (Dose of Ag 10.0 ug) it was 7/20. In addition, the “No. alive (at d. 9)” value in the test on TA3Ha cells (priming dose 0.2 ug) was 2/5; with TA3Ha cells (priming dose 1 ug), 4/5; in the test on TA3Ha cells (priming dose 2 ug), 4/5; in the test with TA3Ha cells (priming dose 10 ug) it was 0/4; in the test on TA3Ha cells (priming dose 20 ug), 1/5; in the test on TA3Ha cells (priming dose 100 ug), 1/5. In addition, the Survival ave. was 33.8 days in the test on TA3Ha cells (priming dose 0.2 ug); 44.2 days in the test with TA3Ha cells (priming dose 1 ug); 25.2 days with TA3Ha cells (priming dose 2 ug); 22.3 days with TA3Ha cells (priming dose 10 ug); 29.0 days with TA3Ha cells (priming dose 20 ug); 25.5 days with TA3Ha cells (priming dose 100 ug). In the test with TA3Ha cells (summary of Table 3), the “protection against TA3Ha tumor cells” value is recorded as “did provide protection”. Further, the DTH reaction entry with DTH effector cells (cells primed with the priming Ag, triggering Ag Fuc) is “not to those carbohydrate determinants which are not represented on epiglycanin”; in the test on DTH effector cells (cells primed with the priming Ag, triggering Ag Ta, listed as epi), “reaction was with the T alpha, T beta and Tn determinants”; in the test on DTH effector cells (cells primed with the priming Ag, triggering Ag Tb, listed as epi), “reaction was with the T alpha, T beta and Tn determinants”; in the test with DTH effector cells (cells primed with the priming Ag, triggering Ag Tn, listed as epi), “reaction was with the T alpha, T beta and Tn determinants”; with DTH effector cells (triggering antigen Epi-M (epi linked to SEPHAROSE microspheres)), “induced a specific DTH response”; with DTH effector cells (triggering antigen irradiated TA3Ha cells), “induced a specific DTH response”.
